Columns and labels:
[1] = Thermographic analysis (TGA), change in weight at set temperature; type: physicochemical
Procedure: Samples weighing approximately 10 mg were placed in a platinum pan and the change in weight at a set temperature (100° C., 150° C.) was measured using Perkin-Elmer Thermal Analysis Equipment.

[2] = In vitro dissolution test, USP apparatus 2 (paddle); type: physicochemical; conditions: distilled water (FIG. 16)
Procedure: Complexes that corresponded to 150 mg of ibuprofen were subjected to dissolution in a USP (United States Pharmacopoeia) dissolution apparatus 2 (Paddle-type) with several kinds of solutions (900 ml). This dissolution test was conducted at 37° C., and a paddle rotation speed of 50 rpm was maintained. A UV detector was used to measure the absorbance of dissolution liquids at regular intervals of up to 120 minutes.
The complexes containing 150 mg of ibuprofen were subjected to dissolution testing using a USP dissolution apparatus 2 (Paddle-type) with several kinds of solutions (900 ml). This dissolution test was conducted at 37° C., at a paddle rotation speed of 50 rpm. A UV detector was used to measure the absorbance of dissolution liquids at regular intervals up to 120 minutes.

TGA change in weight (sublimation) ([1]; 100° C.): showed sublimation
TGA change in weight (sublimation) ([1]; 150° C.): showed sublimation
dissolution profile saturation [2]: ~40%
Compound: CC(C)Cc1ccc(C(C)C(=O)O)cc1 (stereo not drawn) [ibuprofen, Ibuprofen]

Reference: patent US20040029777A1, “Pharmaceutical preparation for taste masking” (TAISHO PHARMACEUTICAL CO., LTD., priority 2002, published 2004)
